Patent publication US20250235450A1, “COMBINATION THERAPIES COMPRISING APREMILAST AND TYK2 INHIBITORS” (Celgene Corporation, priority 2019, published 2025)
Read-outs that look alike come from different tables or passages of the source.

System: anti-CD3/anti-CD28 (Th0) or anti-CD3/anti-CD28, IL-1β, IL-6 and IL-23 (Th17) stimulated whole blood
Assay: Ex-vivo TruCulture tube assay: cytokine production in stimulated whole blood
Assay type: cell-based, human
Settings: for inhibition at 1 µM: Homo sapiens
Protocol: Whole blood was received through the Celgene Donor program after informed consent and donor deidentification. All volunteers were healthy and were not on any medications for at least 72 hours prior to the blood draw. Blood was collected in sodium heparin tubes. The assay was started within 2 hours of the blood draw.
An ex-vivo stimulation of healthy donor human whole blood was performed under two different stimulation conditions. Condition Th0 was a stimulation with TruCulture® tubes containing anti-CD3/anti-CD28. Condition Th17 was a stimulation with TruCulture® tubes containing anti-CD3/anti-CD28 plus IL-1β, IL-6 and IL-23. Whole blood was separated into 15 milliliter conical tubes and pre-treated with DMSO, apremilast alone, BMS-986165 alone or BMS-986165 combined with apremilast. Final concentrations were 0.2% DMSO, 1 μM for apremilast alone, 1 μM, 0.1 μM, 0.01 μM and 0.001 μM BMS-986165 alone and in combination with 1 μM apremilast. Blood was mixed well and then incubated in a 37° C./5% CO2 incubator for 1 hour.
The anti-CD3/anti-CD28 (200 ng/ml and 330 ng/ml final concentrations respectively) TruCulture® tubes were thawed on the bench top for 30 minutes and then labeled. Plungers were pressed and then broken off. TruCulture® tubes were placed in a rack standing upright such that the plunger side is pointing down in the rack and the tube-cap is pointing up. While blood was incubating with compound Human recombinant IL-6, IL-1β and IL-23 were added to all Th17 tubes in the following concentrations: 120 ng IL-6, 120 ng IL-1b and 150 ng IL-23. One ml of the pre-treated whole blood was placed in each tube, using sterile pyrogen-free pipette tips. The cap was replaced and the contents of the tube were mixed by inverting 3 times. The tubes were immediately placed in a 37° C. heat block and incubated for 42 hours (tube-cap end). After the 42 hours the tubes were removed from the heat block, tops were unscrewed and 250 μl of the supernatant was removed and transferred into three 96-well polypropylene plates. Samples were immediately frozen at −80° C. The supernatants were then thawed at room temperature and tested neat for cytokine production by Luminex Multi-Plex MagPix technology (Millipore) or IL-22 by ELISA (Abcam). The manufacturer's procedures were followed accordingly.
Data processing for the cytokine analysis was done using Milliplex Analyst (Millipore), and raw data was exported to Excel template for the cytokine analysis. Data from the template was plotted using GraphPad Prism 7.0 (GraphPad Software, Inc., La Jolla, CA) and expressed as pg/ml or % of control. Statistical analysis was also performed using One Way Anova and Dunnett's Post Test.
To evaluate the combinatory effect of apremilast and BMS-986165, data from the two independent treatments were analyzed by comparing the combinatory response against the theoretical additive response of the two agents. The expected additive effect of two agents (A and B) was calculated using the fractional product method: (fu)A,B=(fu)A×(fu)B; where fu=fraction unaffected by treatment.

`CCOc1cc([C@@H](CS(C)(=O)=O)N2C(=O)c3cccc(NC(C)=O)c3C2=O)ccc1OC` [Apremilast, N-[2-[(1S)-1-(3-ethoxy-4-methoxyphenyl)-2-(methylsulfonyl)ethyl]-2,3-dihydro-1,3-dioxo-1H-isoindol-4-yl]acetamide] was tested, and the inhibition at 1 µM (Th0, 1 μM apremilast, read-out: inhibition of IL-17F production) was 69%, the inhibition at 1 µM (Th0, 1 μM apremilast, read-out: inhibition of TNF-α levels) was 90% and the inhibition at 1 µM (Th17, 1 μM apremilast, read-out: inhibition of IL-17F production) was 49%. For the same molecule, the inhibition at 1 µM (Th17, 1 μM apremilast, read-out: inhibition of TNF-α levels) was 94%, the “CCL20 % of Control” value (Th0, 1 μM apremilast) was 59.5 % of Control and the “GM-CSF % of Control” value (Th0, 1 μM apremilast) was 20.3 % of Control. For the same molecule, the “IFN-γ % of Control” value (Th0, 1 μM apremilast) was 9.3 % of Control, the “IL-1β % of Control” value (Th0, 1 μM apremilast) was 16.4 % of Control and the “IL-2 % of Control” value (Th0, 1 μM apremilast) was 17.9 % of Control. For the same molecule, the “IL-4 % of Control” value (Th0, 1 μM apremilast) was 30.3 % of Control, the “IL-5 % of Control” value (Th0, 1 μM apremilast) was 6.2 % of Control and the “IL-6 % of Control” value (Th0, 1 μM apremilast) was 52.8 % of Control. For the same molecule, the “IL-10 % of Control” value (Th0, 1 μM apremilast) was 41.6 % of Control, the “IL-13 % of Control” value (Th0, 1 μM apremilast) was 15.3 % of Control and the “IL-17A % of Control” value (Th0, 1 μM apremilast) was 71.6 % of Control. For the same molecule, the “IL-17F % of Control” value (Th0, 1 μM apremilast) was 31.8 % of Control, the “IL-21 % of Control” value (Th0, 1 μM apremilast) was 62.9 % of Control and the “IL-22 % of Control” value (Th0, 1 μM apremilast) was 14.8 % of Control. For the same molecule, the “IL-23 % of Control” value (Th0, 1 μM apremilast) was 82.1 % of Control, the “TNF-α % of Control” value (Th0, 1 μM apremilast) was 10.7 % of Control and the “inhibition of IL-17A cytokine expression” value (Th0, 1 μM apremilast) was 28%. For the same molecule, the “inhibition of IL-22 cytokine expression” value (Th0, 1 μM apremilast) was 85%, the “reduction of GM-CSF cytokine expression” value (Th0, 1 μM apremilast) was 80% and the IL-17A levels (Th0, 1 μM apremilast, control 138 pg/mL) was 93 pg/mL. For the same molecule, the IL-17F levels (Th0, 1 μM apremilast, control 1085 pg/mL) was 368 pg/mL, the TNF-α levels (Th0, 1 μM apremilast, control 1380 pg/mL) was 148 pg/mL and the “effect on GM-CSF, statistical significance” value (Th0 and Th17, apremilast) was “significantly inhibited”. The “CCL20 % of Control” value (Th17, 1 μM apremilast) was 220.3 % of Control, the “GM-CSF % of Control” value (Th17, 1 μM apremilast) was 33.8 % of Control and the “IFN-γ % of Control” value (Th17, 1 μM apremilast) was 18.7 % of Control. For the same molecule, the “IL-1β % of Control” value (Th17, 1 μM apremilast) was 98 % of Control, the “IL-2 % of Control” value (Th17, 1 μM apremilast) was 14.4 % of Control and the “IL-4 % of Control” value (Th17, 1 μM apremilast) was 36.7 % of Control. The “IL-5 % of Control” value (Th17, 1 μM apremilast) was 4.8 % of Control, the “IL-6 % of Control” value (Th17, 1 μM apremilast) was 95.3 % of Control and the “IL-10 % of Control” value (Th17, 1 μM apremilast) was 32.6 % of Control. For the same molecule, the “IL-13 % of Control” value (Th17, 1 μM apremilast) was 22.1 % of Control, the “IL-17A % of Control” value (Th17, 1 μM apremilast) was 102.4 % of Control and the “IL-17F % of Control” value (Th17, 1 μM apremilast) was 59.7 % of Control. The “IL-21 % of Control” value (Th17, 1 μM apremilast) was 76.2 % of Control, the “IL-22 % of Control” value (Th17, 1 μM apremilast) was 57.5 % of Control and the “IL-23 % of Control” value (Th17, 1 μM apremilast) was 94.3 % of Control. For the same molecule, the “TNF-α % of Control” value (Th17, 1 μM apremilast) was 5.8 % of Control, the “effect on IL-17A cytokine expression” value (Th17, 1 μM apremilast) was “no effect” and the “inhibition of IL-22 cytokine expression” value (Th17, 1 μM apremilast) was 41%. The “reduction of GM-CSF cytokine expression” value (Th17, 1 μM apremilast) was 66%, the TNF-α levels (Th17, 1 μM apremilast, control 1436 pg/mL) was 91 pg/mL and the IL-17F levels (Th17, 1 μM apremilast, control 6524 pg/mL) was 3643 pg/mL. The “effect on GM-CSF production” value (whole blood, Th0 and Th17) was “inhibited” and the “effect on TNF-α production” value (whole blood, Th0 and Th17) was “inhibited”.
